This is an account of results in PMC6397651 (Journal of pharmaceutical and biomedical analysis, 2018).

Where “and” joins values, the source holds several entries; their conditions need not be identical. Equal values may be shown once.

Data set [1] can be described thus: Stability of analytes in rat plasma. The format is in vitro ADME. The settings on record: for Autosampler stability, % Accuracy / Short-term Stability, % Accuracy: 20°C, 24 hr; for Auto sampler stability / Mean freeze-thaw stability / Mean long term stability / Mean short term stability: range over LQC and HQC; for Short-term Stability, % Accuracy / Mean freeze-thaw stability / Mean long term stability / Mean short term stability / Long-term Stability, % Accuracy / Freeze-Thaw Stability, % Accuracy: rat plasma; for Long-term Stability, % Accuracy / Freeze-Thaw Stability, % Accuracy: −70 ± 10°C; for Long-term Stability, % Accuracy: 30 days; for Freeze-Thaw Stability, % Accuracy: three cycles.

The nature of data set [2]: In-vivo pharmacokinetic study in rats: passive cannabis smoke inhalation. The following applies: for CL/F (apparent clearance): Rimonabant 3 mg/kg i.p.
Setting [3] is: male, Wistar, rat, plasma, ip, 3 mg/kg.
[4] abbreviates: THC, inhalation, 50 min smoke exposure, Wistar rats.
Where [5] appears, read: male, Wistar, rat, plasma, inhaled or intranasal, 0.05 mg/kg.

In the case of `Cc1c(C(=O)NN2CCCCC2)nn(-c2ccc(Cl)cc2Cl)c1-c1ccc(Cl)cc1` [Rimonabant, rimonabant], in data set [1] (HQC 80 ng/mL), the “Autosampler stability, % Accuracy” value stood at 102.30%; the “Short-term Stability, % Accuracy” value turned out to be 104.30%; the “Long-term Stability, % Accuracy” value was 99.40%; the “Freeze-Thaw Stability, % Accuracy” value is 109.50%. Further, in data set [1] (LQC 0.3 ng/mL), the “Autosampler stability, % Accuracy” value is recorded as 104.50%; the “Short-term Stability, % Accuracy” value turned out to be 95.70%; the “Long-term Stability, % Accuracy” value worked out at 96.90%; the “Freeze-Thaw Stability, % Accuracy” value is 106.25%. Further, in data set [1], the Auto sampler stability was 102.30–104.50%, the Mean freeze-thaw stability is given as 106.25–109.50%, the “Mean long term stability” value is 96.90–99.40% and the “Mean short term stability” value was 95.70–104.30%. The “CL/F (apparent clearance)” value in data set [2] (Wistar rats) was 2.0 L/h and 2.0 ± 0.3 L/h. The “CL/F (apparent clearance)” value in data set [2] (Wistar rats, listed as rimonabant) stood at 2 L/h. In data set [2] (setting [3]), the total exposure AUC(0-inf) was 458 ng·h/mL, the AUC(0-t) came to 308 ± 55 ng·h/mL, the maximum concentration (Cmax) is 88.6 ± 5.64 ng/mL and the time of peak concentration (Tmax) was found to be 0.2 ± 0.07 h. Moreover, in data set [2] (setting [3]), the half-life was 5.4 ± 0.85 h.
Regarding `C=C(C)[C@@H]1CCC(C)=C[C@H]1c1c(O)cc(CCCCC)cc1O` [CBD, cannabidiol], in data set [1] (HQC 80 ng/mL), the “Autosampler stability, % Accuracy” value is 96.80%; the “Short-term Stability, % Accuracy” value was 99.60%; the “Long-term Stability, % Accuracy” value worked out at 103.30%; the “Freeze-Thaw Stability, % Accuracy” value came to 105.21%. Besides, in data set [1] (LQC 0.3 ng/mL), the “Autosampler stability, % Accuracy” value amounted to 103.60%; the “Short-term Stability, % Accuracy” value is reported as 97.50%; the “Long-term Stability, % Accuracy” value was 106.50%; the “Freeze-Thaw Stability, % Accuracy” value came to 108.50%. In data set [1], the Auto sampler stability is 96.80–103.60%, the Mean freeze-thaw stability was 105.21–108.50%, the “Mean long term stability” value is 103.30–106.50% and the “Mean short term stability” value is 97.50–99.60%.
In the case of `CCCCCc1cc(O)c2c(c1)OC(C)(C)[C@@H]1CCC(C)=C[C@@H]21` [THC, delta-9-tetrahydrocannabinol], in data set [1] (HQC 80 ng/mL), the “Autosampler stability, % Accuracy” value worked out at 99.97%; the “Short-term Stability, % Accuracy” value was 104.40%; the “Long-term Stability, % Accuracy” value turned out to be 97.20%; the “Freeze-Thaw Stability, % Accuracy” value is 109.20%. For the same compound, in data set [1] (LQC 0.3 ng/mL), the “Autosampler stability, % Accuracy” value is 105.30%; the “Short-term Stability, % Accuracy” value is listed as 103.20%; the “Long-term Stability, % Accuracy” value is 108.30%; the “Freeze-Thaw Stability, % Accuracy” value came out at 112.80%. For the same compound, in data set [1], the “Mean short term stability” value is listed as 103.20–104.40%. In data set [2] (setting [4]), the “CL (clearance)” value was found to be 1.1 ± 0.26 L/h and the “Vss (volume of distribution at steady state)” value is listed as 3.9 ± 2.07 L. In data set [2] (setting [5]), the total exposure AUC(0-inf) was found to be 13.9 ± 3.8 ng·h/mL, the AUC(0-t) was found to be 12.2 ± 3 ng·h/mL and the half-life was 3.7 ± 1.3 h. This compound registered a total exposure AUC(0-inf) in data set [2] (male, Wistar, rat, plasma, inhaled, 0.05 mg/kg) of 13.9 ng·h/mL.
